# Read-outs that look alike come from different tables or passages of the source.
# Legend:
# DOR [1] = target: T1, DOR (Mus musculus, UniProt P32300); assay: [35S]GTP-γ-S binding assay, NG108-15 cells; format: biochemical; conditions: for agonist activity DOR EC50: stimulation of [35S]GTP-γ-S binding, no stim = no stimulation; for functional activity profile at DOR: in words; for Emax: read-out: agonist activity DOR Emax
# T1 construct: endogenous in cells; host or cells: NG108-15 neuroblastoma x glioma cells
# T1 sequence (P32300 whole entry): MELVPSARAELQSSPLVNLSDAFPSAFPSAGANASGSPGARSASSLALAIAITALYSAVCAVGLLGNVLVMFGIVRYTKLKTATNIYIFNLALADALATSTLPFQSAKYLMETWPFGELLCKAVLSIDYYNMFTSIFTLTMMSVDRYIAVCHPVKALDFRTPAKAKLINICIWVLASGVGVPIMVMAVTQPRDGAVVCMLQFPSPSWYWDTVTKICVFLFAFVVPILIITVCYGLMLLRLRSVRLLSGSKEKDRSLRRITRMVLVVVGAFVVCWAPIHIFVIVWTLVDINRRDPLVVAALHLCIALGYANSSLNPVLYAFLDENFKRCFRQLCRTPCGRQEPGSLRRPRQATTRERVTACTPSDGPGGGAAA
# DOR [2] = target: T2, DOR (Homo sapiens, UniProt P41143); assay: Opioid binding assay, displacement of [3H]DADLE, hDOR-CHO cell membranes; conditions: for fold weaker in binding to DOR compared to 14-benzyloxy counterpart: 18a vs 17b, 18d vs 17f
# T2 construct: expressed in transfected cells; host or cells: CHO (hDOR-CHO)
# T2 sequence (P41143 whole entry): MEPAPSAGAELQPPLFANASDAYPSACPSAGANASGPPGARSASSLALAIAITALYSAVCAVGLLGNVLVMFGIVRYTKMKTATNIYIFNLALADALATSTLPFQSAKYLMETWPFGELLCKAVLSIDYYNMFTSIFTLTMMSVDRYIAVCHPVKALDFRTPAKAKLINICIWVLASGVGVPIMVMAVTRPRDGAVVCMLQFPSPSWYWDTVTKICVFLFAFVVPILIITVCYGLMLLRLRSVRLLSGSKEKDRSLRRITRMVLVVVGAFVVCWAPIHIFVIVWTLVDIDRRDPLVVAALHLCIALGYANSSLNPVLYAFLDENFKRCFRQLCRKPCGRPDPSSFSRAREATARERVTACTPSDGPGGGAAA
# MOR [3] = target: T3, MOR (Homo sapiens, UniProt P35372); assay: [35S]GTP-γ-S binding assay, hMOR-CHO cells; format: biochemical; conditions: for agonist activity MOR EC50: stimulation of [35S]GTP-γ-S binding, no stim = no stimulation; for Emax / agonist activity MOR Emax: normalized to stimulation by DAMGO; for Emax: read-out: agonist activity MOR Emax; for functional activity profile at MOR: in words
# T3 construct: expressed in transfected cells; host or cells: CHO (hMOR-CHO)
# T3 sequence (P35372 whole entry): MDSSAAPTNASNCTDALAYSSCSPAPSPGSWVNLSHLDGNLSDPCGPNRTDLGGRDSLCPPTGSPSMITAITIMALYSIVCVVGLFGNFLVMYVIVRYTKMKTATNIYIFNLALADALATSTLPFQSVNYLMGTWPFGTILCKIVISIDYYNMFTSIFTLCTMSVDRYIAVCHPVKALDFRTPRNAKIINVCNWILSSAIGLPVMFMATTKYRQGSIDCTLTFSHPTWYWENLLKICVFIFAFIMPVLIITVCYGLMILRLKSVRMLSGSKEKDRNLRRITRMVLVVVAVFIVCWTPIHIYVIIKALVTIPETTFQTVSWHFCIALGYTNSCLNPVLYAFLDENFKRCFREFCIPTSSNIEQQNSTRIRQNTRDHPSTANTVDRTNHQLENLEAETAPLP
# KOR [4] = target: T4, KOR (Homo sapiens, UniProt P41145); assay: biochemical; format: binding
# T4 construct: expressed in transfected cells; host or cells: CHO (hKOR-CHO)
# T4 sequence (P41145 whole entry): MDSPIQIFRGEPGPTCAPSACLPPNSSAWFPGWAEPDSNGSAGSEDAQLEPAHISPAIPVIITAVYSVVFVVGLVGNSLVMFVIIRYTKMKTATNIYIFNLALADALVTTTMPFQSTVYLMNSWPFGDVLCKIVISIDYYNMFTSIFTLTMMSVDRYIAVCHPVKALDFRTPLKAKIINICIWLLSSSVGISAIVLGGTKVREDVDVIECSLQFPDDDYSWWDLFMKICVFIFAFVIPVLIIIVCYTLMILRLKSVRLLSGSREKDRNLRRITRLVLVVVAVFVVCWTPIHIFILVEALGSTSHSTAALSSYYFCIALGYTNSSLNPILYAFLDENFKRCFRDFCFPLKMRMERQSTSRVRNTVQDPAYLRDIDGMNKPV
# MOR [5] = target: T3, MOR; assay: Opioid binding assay, displacement of [3H]DAMGO, hMOR-CHO cell membranes; conditions: for selectivity ratio MOR/DOR: ratio of Ki values, CHO membranes
# KOR [6] = target: T4, KOR; assay: [35S]GTP-γ-S binding assay, hKOR-CHO cells; format: biochemical
# mice = assay: 55° C. warm-water tail-withdrawal test; format: in vivo, mouse; conditions: for Antinociceptive A50 Values: calculated at time of peak effect; for antinociceptive effect: in words; for effect of naloxone pretreatment on antinociceptive effect: naloxone 10 mg/kg ip, -10 min, icv test compound
# [7] = normalized to stimulation by standard agonist
# [8] = ratio of Ki values, CHO membranes
# [9] = stimulation of [35S]GTP-γ-S binding, no stim = no stimulation
# [10] = shift in EC50 of standard agonist
Structure (SMILES),agonist activity DOR EC50 (DOR [1]),Ki (DOR [2]) [nM],agonist activity MOR EC50 (MOR [3]),selectivity ratio KOR/DOR (KOR [4]),Ki (KOR [4]; read-out: Ki ± SEM KOR) [nM],Ki (MOR [5]) [nM],selectivity ratio MOR/DOR (MOR [5]),melting point,Ki (KOR [4]) [nM],EC50 (KOR [6]) [nM],Emax (KOR [6]; [7]) [%],functional activity profile at DOR (DOR [1]),EC50 (MOR [3]) [nM],Emax (MOR [3]) [%],selectivity ratio KOR/DOR (KOR [4]; [8]),further results
"COC12Cc3cc(-c4ccc(Cl)cc4)cnc3C3Oc4c(O)ccc5c4C31CCN(CC1CC1)C2C5 (stereo not drawn) [Compound 17a, 5′-(4-Chlorophenyl)-17-(cyclopropylmethyl)-6,7-didehydro-4,5α-epoxy-3-hydroxy-14-methoxypyrido[2′,3′:6,7]morphinan]",no stim^b,1.95 ± 0.14,no stim,2.8,5.37 ± 0.48,41.9 ± 2.8,22,170 to 173 °C,–,–,–,–,–,–,–,–
"Oc1ccc2c3c1OC1c4ncc(-c5ccc(Cl)cc5)cc4CC4(OCc5ccccc5)C(C2)N(CC2CC2)CCC314 (stereo not drawn) [Compound 17b, 14-(Benzyloxy)-5′-(4-chlorophenyl)-17-(cyclopropylmethyl)-6,7-didehydro-4,5α-epoxy-3-hydroxypyrido[2′,3′:6,7]morphinan]",no stim,1.91 ± 0.08,no stim,2.8,–,8.42 ± 0.29,4.4,130 to 132 °C,5.33 ± 0.27,27 ± 9,15 ± 1,–,–,–,–,–
"Oc1ccc2c3c1OC1c4ncc(-c5ccc(Cl)cc5)cc4CC4(OCC=Cc5ccccc5)C(C2)N(CC2CC2)CCC314 (stereo not drawn) [Compound 17c, 5′-(4-Chlorophenyl)-14-cinnamyloxy-17-(cyclopropylmethyl)-6,7-didehydro-4,5α-epoxy-3-hydroxypyrido[2′,3′:6,7]morphinan]",no stim,3.74 ± 0.32,no stim,0.89,–,3.03 ± 0.38,0.81,138 to 140 °C,3.31 ± 0.3,–,–,–,–,–,–,–
"COC12Cc3cc(-c4ccc(Cl)cc4)cnc3C3Oc4c(O)ccc5c4C31CCN(C)C2C5 (stereo not drawn) [Compound 17e, 5′-(4-Chlorophenyl)-6,7-didehydro-4,5α-epoxy-3-hydroxy-14-methoxy-17-methylpyrido[2′,3′:6,7]morphinan]",no stim,1.63 ± 0.08,–,–,28 ± 1.59,7.89 ± 0.33,4.8,296 to 299 °C (dec.),–,633 ± 108,36 ± 2,antagonist activity at DOR,379,118 ± 4,17,"analgesic potency, fold weaker than other tested ligands (mice; icv): 6 fold; Antinociceptive A50 Values (mice; icv): 1.44 nmol; antinociceptive effect (mice; icv): full antinociceptive effects; effect of naloxone pretreatment on antinociceptive effect (mice): blocked by naloxone pretreatment"
"CN1CCC23c4c5ccc(O)c4OC2c2ncc(-c4ccc(Cl)cc4)cc2CC3(OCc2ccccc2)C1C5 (stereo not drawn) [Compound 17f, 14-Benzyloxy-5′-(4-chlorophenyl)-6,7-didehydro-4,5α-epoxy-3-hydroxy-17-methylpyrido[2′,3′:6,7]morphinan]",–,1.78 ± 0.15,–,–,49 ± 6,4.69 ± 0.17,2.6,228 to 232 °C,–,215 ± 54,32 ± 2,weak to potent partial agonist activity at DOR,301,119 ± 3,28,Emax (DOR [1]): 52 ± 1%
"CN1CCC23c4c5ccc(O)c4OC2c2ncc(-c4ccc(Cl)cc4)cc2CC3(OCC=Cc2ccccc2)C1C5 (stereo not drawn) [Compound 17g, 5′-(4-Chlorophenyl)-14-cinnamyloxy-6,7-didehydro-4,5α-epoxy-3-hydroxy-17-methylpyrido[2′,3′:6,7]morphinan]",–,1.14 ± 0.11,–,–,1.55 ± 0.09,0.41 ± 0.04,0.36,–,–,–,–,weak to potent partial agonist activity at DOR,4.27,130 ± 3,1.4,Emax (DOR [1]): 84%; Antinociceptive A50 Values (mice; icv): 0.23 nmol; antinociceptive effect (mice; icv): full antinociceptive effects; effect of naloxone pretreatment on antinociceptive effect (mice): blocked by naloxone pretreatment
"O=C(OC12Cc3cc(-c4ccc(Cl)cc4)cnc3C3Oc4c(O)ccc5c4C31CCN(CC1CC1)C2C5)c1ccccc1 (stereo not drawn) [Compound 18a, 14-Benzoyloxy-5′-(4-chlorophenyl)-17-(cyclopropylmethyl)-6,7-didehydro-4,5α-epoxy-3-hydroxypyrido[2′,3′: 6,7]morphinan]",no stim,87 ± 8,no stim,1.3,–,192 ± 21,2.2,158 to 162 °C,117 ± 6,–,–,–,–,–,–,fold weaker in binding to DOR compared to 14-benzyloxy counterpart (DOR [2]): 45 fold; agonist activity KOR EC50 (KOR [6]; [9]): no stim
"O=C(Cc1ccccc1)OC12Cc3cc(-c4ccc(Cl)cc4)cnc3C3Oc4c(O)ccc5c4C31CCN(CC1CC1)C2C5 (stereo not drawn) [Compound 18b, 5′-(4-Chlorophenyl)-17-(cyclopropylmethyl)-6,7-didehydro-4,5α-epoxy-3-hydroxy-14-(phenylacetoxy)pyrido[2′,3′:6,7]morphinan]",no stim,1.33 ± 0.1,no stim,–,3.1 ± 0.19,1.04 ± 0.25,0.78,118 to 120 °C,–,26 ± 9,34 ± 2,–,–,–,2.3,–
"O=C(CCc1ccccc1)O[C@@]12Cc3cc(-c4ccc(Cl)cc4)cnc3[C@@H]3Oc4c(O)ccc5c4[C@@]31CCN(CC1CC1)[C@@H]2C5 [Compound 18c, 5′-(4-Chlorophenyl)-17-(cyclopropylmethyl)-6,7-didehydro-4,5α-epoxy-3-hydroxy-14-(3-phenylpropionyloxy)pyrido[2′,3′:6,7]morphinan]",no stim,–,no stim,–,12 ± 13,–,0.62,–,–,–,–,–,–,–,2.9,"antagonist activity DOR Ke (DOR [1]; [10]): 1.86 ± 0.21 nM; Ki (DOR [2]; read-out: Ki ± SEM DOR): 4.13 ± 0.29 nM; antagonist activity MOR Ke (MOR [3]; [10]): 13 ± 1.7 nM; Ki (MOR [5]; read-out: Ki ± SEM MOR): 2.58 ± 0.12 nM; agonist activity KOR Emax (KOR [6]; [7]): 25 ± 1%; antagonist activity KOR Ke (KOR [6]; [10]): 14 ± 2 nM; EC50 (KOR [6]; stimulation of [35S]GTP-γ-S binding, no stim = no stimulation, read-out: agonist activity KOR EC50): 13 ± 4 nM"
"CN1CCC23c4c5ccc(O)c4OC2c2ncc(-c4ccc(Cl)cc4)cc2CC3(OC(=O)c2ccccc2)C1C5 (stereo not drawn) [Compound 18d, 14-Benzoyloxy-5′-(4-chlorophenyl)-6,7-didehydro-4,5α-epoxy-3-hydroxy-17-methylpyrido[2′,3′:6,7]morphinan]",no stim,17 ± 1,–,–,112 ± 4,84 ± 7,4.9,280 to 284 °C,–,–,–,–,4620 ± 1440,55 ± 8,6.6,fold weaker in binding to DOR compared to 14-benzyloxy counterpart (DOR [2]): 10 fold; functional activity profile at MOR (MOR [3]): weak MOR agonist potency and partial efficacy; agonist activity KOR EC50 (KOR [6]; [9]): no stim
"CN1CCC23c4c5ccc(O)c4OC2c2ncc(-c4ccc(Cl)cc4)cc2CC3(OC(=O)Cc2ccccc2)C1C5 (stereo not drawn) [Compound 18e, 5′-(4-Chlorophenyl)-6,7-didehydro-4,5α-epoxy-3-hydroxy-17-methyl-14-(phenylacetoxy)pyrido[2′,3′:6,7]morphinan]",–,0.97 ± 0.04,–,–,17 ± 1,1.43 ± 0.08,1.5,194 to 196 °C,–,109 ± 24,36 ± 2,weak to potent partial agonist activity at DOR,87,–,18,Emax (DOR [1]): 27 ± 3%; agonist activity MOR Emax (MOR [3]): 122 ± 3%
"CN1CCC23c4c5ccc(O)c4OC2c2ncc(-c4ccc(Cl)cc4)cc2CC3(OC(=O)CCc2ccccc2)C1C5 (stereo not drawn) [Compound 18f, 5′-(4-Chlorophenyl)-6,7-didehydro-4,5α-epoxy-3-hydroxy-17-methyl-14-(3-phenylpropionyloxy)pyrido[2′,3′:6,7]morphinan]",–,0.96 ± 0.05,–,4.6,–,0.94 ± 0.05,0.98,242 to 244 °C,4.41 ± 0.23,136 ± 60,16 ± 2,weak to potent partial agonist activity at DOR,48,> 100,–,Emax (DOR [1]): 59 ± 2%; agonist activity MOR Emax (MOR [3]): 105 ± 2%
"Oc1ccc2c3c1OC1c4ncc(-c5ccc(Cl)cc5)cc4C=C4C(C2)N(CC2CC2)CCC431 (stereo not drawn) [Compound 23, 5′-(4-Chlorophenyl)-17-(cyclopropylmethyl)-3-hydroxy-6,7,8,14-tetradehydro-4,5α-epoxypyrido[2′,3′:6,7]morphinan]",no stim,2.71 ± 0.11,no stim,2.2,–,13 ± 0.4,4.8,164 to 166 °C,5.97 ± 0.19,–,–,–,–,–,–,functional activity profile at MOR (MOR [3]): antagonists at MOR; agonist activity KOR EC50 (KOR [6]; [9]): no stim
"CN1CC[C@]23c4c5ccc(O)c4O[C@H]2[C@@H](O)C=C[C@H]3[C@H]1C5 [morphine, reference compound]",–,–,–,–,–,–,–,–,–,–,–,–,–,–,–,Antinociceptive A50 Values (mice; icv): 0.43 nmol

# Reference: patent US9163030B2 (priority 2012, dated 2015)
